Test results as given in patent US7863307B2, “Process for synthesizing a CETP inhibitor” (priority 2005, dated 2011).
“Also recorded” adds a separate entry of the source.

Experiments:
Assay type in all cases: physicochemical
[1] = solid-form stability on standing (conversion to other forms); settings: crystalline non-solvate form
[2] = hygroscopicity of the crystalline non-solvate form in humid or dry air
[3] = solubility in water / aqueous environments

## COc1cc(F)c(C(C)C)cc1-c1ccc(C(F)(F)F)cc1CN1C(=O)O[C@H](c2cc(C(F)(F)F)cc(C(F)(F)F)c2)[C@@H]1C [compound 12, (4S,5R)-5-[3,5-bis(trifluoromethyl)phenyl]-3-{[4′-fluoro-5′-isopropyl-2′-methoxy-4-(trifluoromethyl)biphenyl-2-yl]methyl}-4-methyl-1,3-oxazolidin-2-one]
[1]; elevated temperatures
  conversion of crystal form on standing: converts more rapidly to the amorphous form at elevated temperatures
[1]; room temperature
  conversion of crystal form on standing: slowly converts to the amorphous form on standing for long periods of time; also recorded: stable at room temperature for moderate periods of time with respect to changing to the amorphous form
[2]
  hydrate formation: does not convert to a hydrate in humid or dry air
  hygroscopicity: non-hygroscopic
[3]
  solubility in water: very poorly soluble in water
